We go through 1 molecule from paper PMC12632547 (bioRxiv, 2025).

The target in one data set is DPP-4 (Homo sapiens, UniProt P27487). As to the kind of experiment: In vitro protease stability: DPP-4 half-life assay. Particulars: recombinant DPP-4 enzyme, pH 7.4. It is filed as in vitro ADME.
The target in the next data set is human GLP-1R (Homo sapiens, UniProt P43220). As to the kind of experiment: In vitro GLP-1 receptor potency, cAMP signaling. Type of data set: cell-based. The following applies: In vitro receptor activity cAMP assay (EC50), CRE-Luc reporter, BHK cells expressing human GLP-1R; mean ± SD, three independent experiments. Background: cAMP levels reflect the balance of adenylyl cyclase and phosphodiesterase activity.
human GLP-1R, sequence (P43220 24-463): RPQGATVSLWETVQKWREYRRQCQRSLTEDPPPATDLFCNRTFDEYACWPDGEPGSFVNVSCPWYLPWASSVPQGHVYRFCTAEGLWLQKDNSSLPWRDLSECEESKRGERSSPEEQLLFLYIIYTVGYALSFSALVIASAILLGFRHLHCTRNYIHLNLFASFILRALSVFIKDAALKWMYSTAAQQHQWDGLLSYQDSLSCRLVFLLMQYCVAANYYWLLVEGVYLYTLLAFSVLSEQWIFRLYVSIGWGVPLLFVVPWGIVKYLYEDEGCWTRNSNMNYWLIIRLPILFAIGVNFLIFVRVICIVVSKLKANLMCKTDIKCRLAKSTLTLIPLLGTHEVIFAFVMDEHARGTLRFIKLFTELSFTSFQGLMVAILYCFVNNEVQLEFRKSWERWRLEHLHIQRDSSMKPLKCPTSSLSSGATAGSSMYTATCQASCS

Data set [1] in a line: Murine plasma pharmacokinetic. It is filed as in vivo, male ICR mice.
[2] abbreviates: male, ICR, mouse, plasma, iv, 1 mg kg-1.

DPP-4, sequence (P27487 whole entry): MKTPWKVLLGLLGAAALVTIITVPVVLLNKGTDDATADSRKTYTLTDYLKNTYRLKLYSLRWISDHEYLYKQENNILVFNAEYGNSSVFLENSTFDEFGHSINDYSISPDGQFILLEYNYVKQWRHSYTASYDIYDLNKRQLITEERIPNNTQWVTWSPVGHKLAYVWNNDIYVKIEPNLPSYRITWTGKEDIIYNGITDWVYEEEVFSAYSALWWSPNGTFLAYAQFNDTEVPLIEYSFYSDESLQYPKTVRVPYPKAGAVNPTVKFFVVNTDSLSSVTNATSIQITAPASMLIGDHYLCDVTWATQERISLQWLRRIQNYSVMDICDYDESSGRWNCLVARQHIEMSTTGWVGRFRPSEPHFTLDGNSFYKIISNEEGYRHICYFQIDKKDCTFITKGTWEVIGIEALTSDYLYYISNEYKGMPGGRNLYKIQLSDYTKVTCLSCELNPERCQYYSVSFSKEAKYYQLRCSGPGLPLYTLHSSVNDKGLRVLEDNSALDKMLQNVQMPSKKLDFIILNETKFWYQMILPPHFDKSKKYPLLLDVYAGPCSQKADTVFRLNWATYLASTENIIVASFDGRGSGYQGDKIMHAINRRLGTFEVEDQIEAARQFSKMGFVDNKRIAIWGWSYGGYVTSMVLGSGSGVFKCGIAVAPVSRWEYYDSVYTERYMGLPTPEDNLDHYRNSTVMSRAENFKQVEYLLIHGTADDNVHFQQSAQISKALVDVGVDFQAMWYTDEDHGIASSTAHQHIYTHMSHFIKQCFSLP

Regarding `CC[C@H](C)[C@H](NC(=O)[C@H](Cc1ccccc1)NC(=O)[C@H](CCC(=O)O)NC(=O)[C@H](CCCCN)NC(=O)[C@H](C)NC(=O)[C@H](C)NC(=O)[C@H](CCC(N)=O)NC(=O)CNC(=O)[C@H](CCC(=O)O)NC(=O)[C@H](CC(C)C)NC(=O)[C@H](Cc1ccc(O)cc1)NC(=O)[C@H](CO)NC(=O)[C@H](CO)NC(=O)[C@@H](NC(=O)[C@H](CC(=O)O)NC(=O)[C@H](CO)NC(=O)[C@@H](NC(=O)[C@H](Cc1ccccc1)NC(=O)[C@@H](NC(=O)CNC(=O)[C@H](CCC(=O)O)NC(=O)[C@H](C)NC(=O)N(N)Cc1c[nH]cn1)[C@@H](C)O)[C@@H](C)O)C(C)C)C(=O)N[C@@H](C)C(=O)N[C@@H](Cc1c[nH]c2ccccc12)C(=O)N[C@@H](CC(C)C)C(=O)N[C@H](C(=O)N[C@@H](CCCNC(=N)N)C(=O)NCC(=O)N[C@@H](CCCNC(=N)N)C(=O)NCC(=O)O)C(C)C` [AzaH7, [azaHis^7/R^34]-GLP-1(7–37)], the half-life – broadly, how long it takes for the measured level to halve – at 0.1 mmol/l on DPP-4 is over 24 h. The EC50 – broadly, the concentration at which the effect is half-maximal – on human GLP-1R turned out to be 0.743 ± 0.164 nM. In addition, in data set [1] (setting [2]), the clearance (in general, the volume of plasma or blood freed of the substance per unit of time) is about 7 mL/min/kg and the half-life is 1.67 ± 0.52 h. The “plasma half-life” value in data set [1] (mice, single IV 1 mg kg^−1, plasma, hours converted to minutes) was about 1.67 h.
